Measurements from ChEMBL document CHEMBL6092168, “Identification of novel indolinone derivatives as CTSC inhibitors to treat inflammatory bowel disease by modulating inflammatory factors” (Eur J Med Chem, 2024).
Active and inactive are the calls of the source. The calls are words filed in the database; no cut-off is given here.

Legend:
[1] = AUC (0 to infinity) in male Sprague-Dawley rat at 10 mg/kg, po measured at 5 to 1440 mins by LC-MS/MS analysis; type: ADME, organism-based; settings: in vivo, time 5-1440 min
[2] = system: Mus musculus; test: Anti-inflammatory activity in DSS-induced ulcerative colitis male C57BL/6 mouse model assessed as increase in body weight at 60 mg/kg administered via gavage for 10 days; type: functional, organism-based; settings: time 10.0 day
[3] = molecular target: T1, Cathepsin G (Mus musculus) (UniProt P28293); test: In vivo inhibition of Cathepsin G in C57BL/6 mouse assessed as reduction in cathepsin G activity in blood at 30 mg/kg, po administered once daily for 6 days by fluorescence based microplate reader relative to control; type: functional, organism-based; settings: time 6.0 day
T1 sequence (whole entry): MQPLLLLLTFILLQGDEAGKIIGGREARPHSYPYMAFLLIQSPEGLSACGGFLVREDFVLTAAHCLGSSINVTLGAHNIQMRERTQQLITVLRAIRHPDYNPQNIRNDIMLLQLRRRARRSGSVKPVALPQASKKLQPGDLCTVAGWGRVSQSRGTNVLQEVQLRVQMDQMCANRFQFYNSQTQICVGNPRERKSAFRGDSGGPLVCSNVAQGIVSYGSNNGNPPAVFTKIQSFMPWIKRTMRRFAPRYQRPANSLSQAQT

[4] = molecular target: T2, Dipeptidyl peptidase 1 (Mus musculus) (UniProt P97821); test: In vivo inhibition of Cathepsin C in C57BL/6 mouse assessed as reduction in cathepsin C activity in blood at 15 mg/kg, po administered once daily for 6 days by fluorescence based microplate reader relative to control; type: functional, organism-based; settings: time 6.0 day
T2 sequence (whole entry): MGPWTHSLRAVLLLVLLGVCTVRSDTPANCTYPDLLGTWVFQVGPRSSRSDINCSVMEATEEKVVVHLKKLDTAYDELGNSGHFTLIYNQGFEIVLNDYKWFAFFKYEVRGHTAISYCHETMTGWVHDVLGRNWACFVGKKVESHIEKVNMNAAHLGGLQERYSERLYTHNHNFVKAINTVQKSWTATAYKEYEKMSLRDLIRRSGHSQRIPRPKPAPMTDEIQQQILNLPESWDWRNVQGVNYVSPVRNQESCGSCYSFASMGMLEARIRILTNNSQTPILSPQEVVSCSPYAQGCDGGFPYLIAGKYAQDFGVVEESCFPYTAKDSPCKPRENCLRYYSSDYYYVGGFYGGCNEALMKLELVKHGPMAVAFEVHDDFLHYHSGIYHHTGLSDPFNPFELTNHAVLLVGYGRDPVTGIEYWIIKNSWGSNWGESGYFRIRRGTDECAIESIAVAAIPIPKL

[5] = Acute toxicity in ICR mouse assessed as heart pathological change at 1500 mg/kg, po administered daily for 7 days by H and E staining based analysis; type: organism-based; settings: in vivo, 168 h, time 7 day
[6] = system: Mus musculus; test: Anti-inflammatory activity in DSS-induced ulcerative colitis male C57BL/6 mouse model assessed as increase in IL-10 expression in colon administered via gavage for 10 days by ELISA; type: functional, organism-based; settings: dose 15-60 mg/kg, time 10.0 day
[7] = system: Mus musculus; test: Anti-inflammatory activity in DSS-induced ulcerative colitis male C57BL/6 mouse model assessed as reduction in IL-6 expression in colon administered via gavage for 10 days by ELISA; type: functional, organism-based; settings: dose 15-60 mg/kg, time 10.0 day
[8] = system: Mus musculus; test: Anti-inflammatory activity in DSS-induced ulcerative colitis male C57BL/6 mouse model at 60 mg/kg administered twice daily; type: functional, organism-based
[9] = Tmax in male Sprague-Dawley rat at 10 mg/kg, po measured at 5 to 1440 mins by LC-MS/MS analysis; type: ADME, organism-based; settings: in vivo, time 5-1440 min
[10] = Acute toxicity in ICR mouse assessed as change in white blood cell count in blood at 1500 mg/kg, po administered daily for 7 days; type: organism-based; settings: in vivo, 168 h, time 7 day
[11] = Acute toxicity in ICR mouse assessed as body weight loss at 500 mg/kg, po administered twice daily for 7 days; type: organism-based; settings: in vivo, 168 h, time 7 day
[12] = Cmax in male Sprague-Dawley rat at 10 mg/kg, po measured at 5 to 1440 mins by LC-MS/MS analysis; type: ADME, organism-based; settings: in vivo, time 5-1440 min
[13] = molecular target: T3, Myeloblastin (Homo sapiens) (UniProt P24158); test: Inhibition of proteinase 3 in human U-937 cells using aminobenzoyl-Val-Ala-Asp-Cys-Ala-Asp-Gln-ethylenediamine 2,4-dinitrophenyl as substrate at 10 uM incubated for 5 days by fluorescence based microplate reader analysis relative to control; type: cell-based; settings: time 5.0 day
T3 sequence (whole entry): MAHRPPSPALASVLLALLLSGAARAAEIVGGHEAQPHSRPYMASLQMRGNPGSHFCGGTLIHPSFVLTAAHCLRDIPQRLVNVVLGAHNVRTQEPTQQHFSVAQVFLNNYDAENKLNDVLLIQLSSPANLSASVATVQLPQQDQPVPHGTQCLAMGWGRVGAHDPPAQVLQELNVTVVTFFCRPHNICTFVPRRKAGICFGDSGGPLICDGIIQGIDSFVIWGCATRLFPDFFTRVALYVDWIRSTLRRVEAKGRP

[14] = Acute toxicity in ICR mouse assessed as spleen pathological change at 1500 mg/kg, po administered daily for 7 days by H and E staining based analysis; type: organism-based; settings: in vivo, 168 h, time 7 day
[15] = system: Mus musculus; test: Anti-inflammatory activity in DSS-induced ulcerative colitis male C57BL/6 mouse model assessed as reduction in cathepsin G level in colon at 15 to 30 mg/kg administered via gavage for 10 days; type: functional, organism-based; settings: dose 15-30 mg/kg, time 10.0 day
[16] = system: RAW264.7; test: Anti-inflammatory activity in mouse RAW264.7 cells assessed as inhibition of LPS-induced IL-1beta production at 5 uM preincubated for 1 hr followed by LPS addition and measured after 24 hrs by ELISA relative to control; type: functional; design: scale not given: the % may be the effect or the level left; settings: time 25 hrs
[17] = molecular target: T4, Neutrophil elastase (Mus musculus) (UniProt Q3UP87); test: In vivo inhibition of neutrophil elastase in C57BL/6 mouse assessed as reduction in neutrophil elastase activity in blood administered orally once daily for 6 days by fluorescence based microplate reader; type: functional, organism-based; settings: dose 5-30 mg/kg, route po, time 6.0 day
T4 sequence (whole entry): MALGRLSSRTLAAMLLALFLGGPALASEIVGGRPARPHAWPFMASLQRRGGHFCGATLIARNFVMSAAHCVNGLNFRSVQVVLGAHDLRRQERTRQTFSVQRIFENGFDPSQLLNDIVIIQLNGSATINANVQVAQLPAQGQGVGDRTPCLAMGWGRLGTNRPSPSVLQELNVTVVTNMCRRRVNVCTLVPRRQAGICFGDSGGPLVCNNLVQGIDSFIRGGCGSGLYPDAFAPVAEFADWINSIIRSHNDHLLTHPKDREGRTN

[18] = system: Mus musculus; test: Anti-inflammatory activity in DSS-induced ulcerative colitis male C57BL/6 mouse model assessed as reduction in inflammatory cell infiltration in colon at 60 mg/kg administered via gavage for 10 days by H and E staining based analysis; type: functional, organism-based; settings: time 10.0 day
[19] = molecular target: T4, Neutrophil elastase (Mus musculus); test: Induction of neutrophil elastase degradation in C57BL/6 mouse bone marrow cells assessed as remaining activity at 10 uM incubated for 12 hrs by Western blot analysis relative to control; type: cell-based; settings: Bone marrow cell
[20] = system: Mus musculus; test: Anti-inflammatory activity in DSS-induced ulcerative colitis male C57BL/6 mouse model assessed as increase in colon length administered via gavage for 10 days; type: functional, organism-based; settings: dose 15-60 mg/kg, time 10.0 day

With `O=C1Nc2c(cccc2-c2ccc(NC3CCOCC3)cc2)/C1=C/c1ccnc2ccccc12` the AUC [1] was 407.54 ng·h/mL, the Activity [2] was “Active” and the inhibition [3] was 39.5%. For the same compound, the inhibition [4] was less than 50%, the Activity [5] was “Non-toxic” and the Activity [6] was “Dose-dependent-effect; Significant Increase Observed In High Dose Group”. The Activity [7] was “Dose-dependent-effect; Significant Reduction Observed In High Dose Group”, the Activity [8] was “Active; Therapeutic Effect Is Slightly Better Than 5-Asa But Worse Than Azd7986” and the Tmax [9] was 39.6 min. The Activity [10] was “Non-toxic”, the Activity [11] was “Non-toxic” and the Cmax [12] was 158 ng/mL. For the same compound, the inhibition [13] was 33.1%, the Activity [14] was “Non-toxic” and the Activity [15] was “inactive”. For the same compound, the Activity [16] was 90.5%, the inhibition [17] was “Dose-dependent-effect” and the Activity [18] was “Active”. The Activity [19] was 75% and the Activity [20] was “Dose-dependent-effect”.
